Consider two compounds from patent US6235771A, “Anilide derivative, production and use thereof” (Takeda Chemical Industries, Ltd., priority 1998, dated 2001).

The target of test [1] is T1, human CCR5 (Homo sapiens, UniProt P51681).
T1 construct: expressed in transfected cells; host or cells: CHO-K1 cells, electroporated with plasmid pCKR5 (pcDNA3.1 backbone), geneticin-selected (CHO/CCR5)
As to the kind of experiment: Inhibition of [125I]-RANTES binding to human CCR5 in CHO/CCR5 cells (CCR5 antagonistic activity). The following applies: Test Compound 1 μM, 100 pM [125I]-RANTES, room temperature, 40 minutes, read-out: Inhibition Rate (CCR5 binding). The protocol: Cloning of CCR5 gene was carried out by PCR (polymerase chain reaction) from human spleen cDNA. With using 0.5 ng of spleen cDNA (Toyobo, QUICK-Clone cDNA) as template, PCR was performed in DNA Thermal Cycler 480 (Perkin-Elmer) (reaction conditions: 30 cycles of 95° C. for 1 minute, 60° C. for 1 minute, and 75° C. for 5 minutes) by adding primer set, 5'-[…]-3' (25 pmol) and 5'-[…]-3' (25 pmol), which were designed referring to nucleotide sequence of CCR5 gene reported by Samson et al. (Biochemistry, 35(11), 3362-3367 (1996)) and by using TaKaRa EX Taq (TakaraShuzo). The resultant PCR product was subjected to agarose gel. electrophoresis to collect about 1.0 kb DNA fragment, which was subjected to Original TA Cloning Kit (Funakoshi) to carry out cloning of CCR5 gene.
The plasmid obtained in the above (1) was digested with restriction enzymes XbaI (Takara Shuzo) and BamHI (Takara Shuzo) and subjected to agarose gel electrophoresis to collect about 1.0 kb DNA fragment. The DNA fragment was mixed with plasmid pcDNA3.1 (Funakoshi) for expression in animal cells, said plasmid being digested with XbaI and BamHI, and they were ligated with DNA Ligation Kit Ver.2 (Takara Shuzo). The resulting plasmid was subjected to transformation of competent cell of E. coli JM109 (Takara Shuzo) to obtain plasmid pCKR5.
CHO-K1 cells were grown in 750 ml of tissue culture flask (Becton Dickinson) using Ham's F12 medium (Nihon Pharmaceutical) containing 10% fetal calf serum (Life Tech Oriental) and took off with 0.5 g/L trypsin-0.2 g/L EDTA (Life Tech Oriental). The cells were washed with PBS (Life Tech Oriental), centrifuged (1000 rpm, 5 minutes), and suspended in PBS. With using Gene Pulser (Bio-Rad Laboratories), DNA was introduced into the cells under the conditions shown below. That is, to the cuvette of 0.4 cm gap were added 8×10^6 cells and 10 μg of plasmid pCKR5 for expression of human CCR5, and electroporation was carried out under 0.25 kV of voltage and 960 μF of capacitance. The cells were transferred into Ham's F12 medium (Nihon Pharmaceutical) containing 10% fetal calf serum, and cultivated for 24 hours. The cells were again took off and centrifuged, and suspended in Ham's F12 medium (Nihon Pharmaceutical) containing 10% fetal calf serum and 500 μg/ml of geneticin (Life Tech Oriental). The suspension was diluted to give 10^4 cells/ml of the suspension, which was inoculated on 96 well plate (Becton Dickinson) to give geneticin resistant cells. The resulting geneticin resistant cells were cultivated in 96 well plate (Becton Dickinson), and cells expressing CCR5 were selected from the geneticin resistant cells. That is, in assay buffer (Ham's F12 medium containing 0.5% BSA and 20 mM HEPES (Wako Pure Chemical, pH7.2) to which was added 200 pM of [^125 I]-RANTES (Amersham) as ligand, binding reaction was carried out at room temperature for 40 minutes, and the buffer was washed with cooled PBS. To the buffer was added 50 μl/well of 1M NaOH, and the mixture was stirred. Radioactivity was determined with γ-counter to select CHO/CCR5 cells which specifically bind to the ligand.
The CHO/CCR5 were inoculated on 96 well microplate (5×10^4 cells/well) and cultivated for 24 hours. The medium was removed by means of suction, and to each well was added assay buffer containing Test Compound (1 μM) and then 100 pM of [^125 I]-RANTES (Amersham) as ligand. Binding assay was carried out at room temperature for 40 minutes, and assay buffer was removed by means of suction. Each well was washed twice with cooled PBS, and 200 μl of Microscint-20 (Packard Instrument, Inc.) was added to each well. Radio-activity was determined with Top-Count Micro Scintillation Counter (Packard Instrument, Inc.).
According to the method described above, inhibition rate of Test Compound (whose number is referred to in the following Examples) to CCR5 binding.

Test [2] concerns HIV-1 BA-L. Nature of the test: Inhibitory effect on HIV-1 infection to MAGI-CCR5 cell (β-galactosidase activity). Type of test: cell-based. To be noted: 100 μl of medium containing 1.6 μM Test Compound plus 100 μl of medium containing 300PFU HIV-1 BA-L; MAGI-CCR5 cells; 37° C., 2 days. As for the experimental part: The plasmid where β-galactosidase gene was ligated downstream of HIV-1 LTR was introduced into CD4 positive HeLa cell, to which human CCR5 was further introduced to obtain transformant MAGI-CCR5. By using said transformant MAGI-CCR5, degree of HIV-1 infection was calculated from β-galactosidase activity (blue color due to decomposition of 5-bromo-4-chloro-3-indolyl-β-D-galactopyranoside). Specifically, MAGI-CCR5 cells were suspended in DMEM medium containing 10% serum to prepare 5×10^4 cells/ml suspension. To each well of 96 well plate was inoculated 200 μl of the suspension, and the cells were cultivated at 37° C. overnight. The medium was removed by means of suction, and to the residue was added 100 μl of the above medium containing 1.6 μM of Test Compound and 100 μl of the above medium containing 300PFU of HIV-1 BA-L cells. The cells were cultivated at 37° C. for 2 days. The medium was removed by means of suction. To the residue was added 200 μl of cell fixative (PBS containing 1% formaldehyde and 0.2% glutaraldehyde), and the mixture was allowed to stand at room temperature for 5 minutes and washed twice with PBS. To the mixture was added 100 μl of staining solution (PBS containing […] and 0.4 mg/ml X-gal), and the mixture was allowed to stand at 37° C. for 50 minutes and washed twice with PBS. The number of blue cells was counted by microscope and defined as the number of cells infected with HIV-1. According to this method, inhibition rate on HIV-1 infection was determined.

T1 sequence (P51681 whole entry): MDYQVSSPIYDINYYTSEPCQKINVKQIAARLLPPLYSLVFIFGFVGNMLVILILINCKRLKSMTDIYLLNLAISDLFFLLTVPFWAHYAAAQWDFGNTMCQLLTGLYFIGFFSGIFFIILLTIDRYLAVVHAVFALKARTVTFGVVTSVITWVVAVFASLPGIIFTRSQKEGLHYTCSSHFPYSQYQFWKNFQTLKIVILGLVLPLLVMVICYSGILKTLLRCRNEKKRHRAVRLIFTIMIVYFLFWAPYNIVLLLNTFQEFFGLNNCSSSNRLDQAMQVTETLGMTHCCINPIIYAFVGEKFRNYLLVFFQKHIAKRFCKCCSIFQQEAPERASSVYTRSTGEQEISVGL

What is called inhibition is the drop in the measured response relative to a control, in per cent. On to `CCCCOc1ccc(-c2ccc3c(c2)C=C(C(=O)Nc2ccc(CN(C)C4CCOCC4)cc2)CCS3(=O)=O)cc1` [Compound 30, 7-(4-butoxyphenyl)-N-[4-[N-methyl-N-(tetrahydropyran-4-yl)aminomethyl]phenyl]-1,1-dioxo-2,3-dihydro-1-benzothiepine-4-carboxamide], for which, in test [1], the inhibition at 1 µM was 99%. Besides, the “Inhibition Rate (HIV-1 infection)” value in test [2] is recorded as 91%.
On to `CCCOCCOc1ccc(-c2ccc3c(c2)C=C(C(=O)Nc2ccc(CN(C)C4CCOCC4)cc2)CCS3(=O)=O)cc1` [Compound 97, N-[4-[[N-methyl-N-(tetrahydropyran-4-yl)amino]methyl]phenyl]-7-[4-(2-propoxyethoxy)phenyl]-1,1-dioxo-2,3-dihydro-1-benzothiepine-4-carboxamide], for which, in test [1], the inhibition at 1 µM is 92%. For the same compound, in test [2], the “Inhibition Rate (HIV-1 infection)” value is 87%.
